Tests used:
[1] = Bioavailability of Withaferin A and Withanoside IV in animals; assay type: in vivo; conditions: rat plasma, p.o.; standards 15 mg/kg, WG35 500 mg/kg
Description: Albino rats weighing 200-220 gm of both sexes were used for the study. The rats were kept individually in polypropylene cages and maintained in a well-ventilated room under normal and uniform conditions like 12 hours light and dark cycle and at 26±2° C. Water and feed were given ad-libitum. After the acclimatization period, the animals were fasted overnight before administration of test products.
Immediately after drug administration, 0.5 ml of blood was withdrawn at 0, 0.5, 1, 1.5, 2, 4, 6, 8 and 12 hours. Plasma samples were separated and Withaferin A and Withanoside IV were detected.

Wistar rats = assay: Carrageenan induced paw edema model; assay type: in vivo, rat; conditions: single p.o. dose
Description: Anti-inflammatory activity of Withania somnifera extracts was assessed by carrageenan induced paw edema model in rats. Wistar rats were divided into seven groups (n=5). Following treatment was given to the rats as single dose; • Group 1: Control (Received only vehicle, 1% Tween 80 v/v p.o.) • Group II: Powdered Withania somnifera plant parts minimum 0.4% withanolides—Dosage 1750 mg/kg p.o. • Group III: Withania somnifera plant extract standardized minimum 2.5% withanolides (WG2.5)—Dosage 200 mg/kg p.o. • Group IV: Withania somnifera plant extract standardized minimum 5% withanolides (WG5)—Dosage 100 mg/kg p.o. • Group V: Withania somnifera plant extract standardized minimum 10% Withanolide Glycoside (WG10)—Dosage 50 mg/kg p.o. • Group VI: Sample 2 standardized with minimum 35±3% Withanolide Glycoside (WG 35)—Dosage 14 mg/kg p.o). • Group VII: Indomethacin (10 mg/kg p.o.).
After 30 minutes of extracts 0.1 mL of carrageenan (1% in normal saline) was injected into the right hind paw of each rat. The paw volume was measured plethysmographically at 0, 0.5, 1, 2, 3, 4 and 5th hour after challenge. The percentage inhibition of edema was calculated for each group with respect to the vehicle received control group of animals.

GABA receptors = assay: Expression of GABA receptors in rat glioblastoma (C6) cell line; assay type: cell-based; conditions: C6 cells, positive control 1 μg/mL
Swiss albino mice = assay: Pentobarbital induced sleep activity; assay type: in vivo; conditions: 1 mg/kg
Description: Swiss albino mice weighing 25-30 gm were used for the study.
Thirty minutes later, pentobarbital 40 mg/kg body weight was administered to each mouse to induce sleep. The onset time of sleep was recorded for all the animals. After induction of sleep, mice were placed in the inverted position and when sedation was over, the time point when the mice returned to their normal posture was noted. The time interval between dosing and the start of sleep was recorded as latency time.

Swiss mice = assay: Swimming endurance test; assay type: in vivo; conditions: 8th day after 7 days once daily p.o.
Description: Extracts were given to the mice, once daily for a period of 7 days. On 8th day the mice were subjected to swimming stress by keeping them in propylene tank of dimension (37×37×30 cm), filled with water to a height of 25 cm. The […] were allowed to swim till complete exhaustion and the endpoint was taken when the animal started drowning. The mean swimming time for each group was calculated.

Albino Wistar rats = assay: Anoxia stress tolerance (AST) test; assay type: in vivo, rat; conditions: p.o. daily
Description: Albino Wistar rats of either sex weighing 150-220 g were selected and divided into seven groups of six each. Doses in each group were calculated thus, only 5 mg/Kg body weight withanolide were administered to each animal. The test was conducted as per the protocol disclosed in U.S. Pat. No. 9,987,323B2.
Animals were treated as shown above for the 3 weeks. At the end of 1st, 2nd and 3rd week i.e., on 7th, 14th and 21st day 1 h after the treatment stress was induced by placing each animal individually in the hermetic vessel of 1 L capacity to record anoxia tolerance time. The time duration of entry of the animal into the hermetic vessel and the appearance of the first convulsion was taken as time of anoxia.

[2] = rats, administered orally; cited from earlier work

## CC1=C(CO)C(=O)O[C@@H]([C@@H](C)[C@H]2CC[C@H]3[C@@H]4C[C@H]5O[C@]56[C@@H](O)C=CC(=O)[C@]6(C)[C@H]4CC[C@]23C)C1 [Withaferin A]
[1]
  Withaferin A AUC (0-12 h): 30.2 ng·h/mL
  Withaferin A Cmax: 28 ng/mL

## COc1ccc2c(c1)c(CC(=O)O)c(C)n2C(=O)c1ccc(Cl)cc1 [Indomethacin]
Wistar rats; 0.5 hr
  Percentage inhibition of paw oedema: 28%
Wistar rats; 1 hr
  Percentage inhibition of paw oedema: 65%
Wistar rats; 2 hr
  Percentage inhibition of paw oedema: 80%
Wistar rats; 3 hr
  Percentage inhibition of paw oedema: 86%

## CC1=C(CO)C(=O)O[C@@H]([C@@H](C)[C@H]2CC[C@H]3[C@@H]4CC=C5C[C@@H](O[C@@H]6O[C@H](CO[C@@H]7O[C@H](CO)[C@@H](O)[C@H](O)[C@H]7O)[C@@H](O)[C@H](O)[C@H]6O)C[C@H](O)[C@]5(C)[C@H]4CC[C@]23C)C1 [Withanoside IV]
[1]
  Withaferin A AUC (0-12 h): 18 ng·h/mL
  Withaferin A Cmax: 13.5 ng/mL
  Withanoside IV AUC (0-12 h): 14 ng·h/mL
  Withanoside IV Cmax: 10.2 ng/mL

## NCCCC(=O)O [GABA, Gamma aminobutyric acid]
GABA receptors
  Gene expression of GABA receptors, fold increase (cell control = 1.00): 1.00

## CN1C(=O)CN=C(c2ccccc2)c2cc(Cl)ccc21 [Diazepam]
Swiss albino mice; pentobarbital 40 mg/kg
  Duration of sleep: 99
  Onset time of sleep (latency time): 27 min
Swiss albino mice; vs control
  Percentage decrease in onset time of sleep: 47%
  Percentage increase in duration of sleep: 74%
Swiss mice
  Swimming time: 58.67 min
Albino Wistar rats; 1st week
  Duration of anoxia stress tolerance: 34.40 min
Albino Wistar rats; 2nd week
  Duration of anoxia stress tolerance: 35.1 min
Albino Wistar rats; 3rd week
  Duration of anoxia stress tolerance: 37.00 min

## CC1=C(C)C(=O)O[C@@H]([C@](C)(O)[C@H]2CC[C@H]3[C@@H]4[C@@H]5O[C@@H]5[C@@]5(O)CC=CC(=O)[C@]5(C)[C@H]4CC[C@]23C)C1 [Withanolide A]
[2]
  Absolute bioavailability of withanolide A in plasma: less than 5%

From patent US12527832B2, “Enriched Withania somnifera based dietary composition and a method thereof” (priority 2015, dated 2026)
